Measurements reported in ChEMBL document CHEMBL1146018, “The design and synthesis of a tricyclic single-nitrogen scaffold that serves as a 5-HT2C receptor agonist” (Bioorg Med Chem Lett, 2006).
Calls of active or inactive are those of the source. No cut-off for these calls is given here.

How the values were obtained:
[1] = biological target: T1, 5-hydroxytryptamine receptor 2C (Homo sapiens, UniProt P28335); assay: Binding affinity to 5HT2C
T1 sequence (P28335 whole entry): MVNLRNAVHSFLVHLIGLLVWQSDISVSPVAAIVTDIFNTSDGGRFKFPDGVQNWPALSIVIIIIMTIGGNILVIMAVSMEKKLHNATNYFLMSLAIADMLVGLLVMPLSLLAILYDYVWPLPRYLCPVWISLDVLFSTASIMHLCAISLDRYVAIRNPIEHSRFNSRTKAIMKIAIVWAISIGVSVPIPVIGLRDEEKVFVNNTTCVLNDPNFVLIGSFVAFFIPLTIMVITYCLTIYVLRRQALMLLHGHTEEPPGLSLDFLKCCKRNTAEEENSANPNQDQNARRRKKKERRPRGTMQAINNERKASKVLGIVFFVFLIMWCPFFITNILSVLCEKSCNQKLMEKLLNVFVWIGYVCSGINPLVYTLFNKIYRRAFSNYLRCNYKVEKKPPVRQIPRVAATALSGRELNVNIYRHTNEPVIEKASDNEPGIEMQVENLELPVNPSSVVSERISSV

[2] = biological target: Serotonin 2 receptors; 5-HT2a & 5-HT2c (Homo sapiens) (UniProt P28223+P28335); assay: Selectivity for 5HT2C over 5HT2A; type: protein assay
[3] = biological target: Serotonin receptor (2b and 2c) (Homo sapiens) (UniProt P41595+P28335); assay: Selectivity for 5HT2C over 5HT2B; type: protein assay
[4] = biological target: T1, 5-hydroxytryptamine receptor 2C; assay: […] of 5HT2C assessed as intracellular calcium concentration; type: functional, cell-based
[5] = Clearance in dog at 1.0 mg/kg, iv; type: ADME, organism-based, Canis lupus familiaris; parameters: dose 1 mg/kg, route intravenous; details: in vivo
[6] = Half life in dog at 1.0 mg/kg, iv; type: ADME, organism-based, Canis lupus familiaris; parameters: dose 1 mg/kg, route intravenous; details: in vivo
[7] = Oral bioavailability in dog at 10.6 mg/kg, po; type: ADME, organism-based, Canis lupus familiaris; details: in vivo
Rattus norvegicus [8] = assay: Reduction of food intake in ip dosed rat; type: functional, organism-based
Rattus norvegicus [9] = assay: Reduction of food intake in rat at 10 mg/kg, ip after 4 hrs; type: functional, organism-based; parameters: dose 10 mg/kg
Rattus norvegicus [10] = assay: Reduction of food intake in rat at 20 mg/kg, ip after 24 hrs; type: functional, organism-based; parameters: dose 20 mg/kg
[11] = Oral bioavailability in rat at 10.6 mg/kg, po; type: ADME, organism-based; details: in vivo
[12] = Ratio of drug level in brain against plasma measured as AUC cortex/AUC plasma at 1.2 mg/kg, iv; type: ADME, organism-based; parameters: dose 1.2 mg/kg, route intravenous; details: rat, read-out: BPR
[13] = Clearance in rat at 1.2 mg/kg, iv; type: ADME, organism-based; parameters: dose 1.2 mg/kg, route intravenous; details: in vivo
[14] = Half life in rat at 1.2 mg/kg, iv; type: ADME, organism-based; parameters: dose 1.2 mg/kg, route intravenous; details: in vivo

Serotonin 2 receptors; 5-HT2a & 5-HT2c (Homo sapiens), sequence (P28223 whole entry, looked up, one chain of several): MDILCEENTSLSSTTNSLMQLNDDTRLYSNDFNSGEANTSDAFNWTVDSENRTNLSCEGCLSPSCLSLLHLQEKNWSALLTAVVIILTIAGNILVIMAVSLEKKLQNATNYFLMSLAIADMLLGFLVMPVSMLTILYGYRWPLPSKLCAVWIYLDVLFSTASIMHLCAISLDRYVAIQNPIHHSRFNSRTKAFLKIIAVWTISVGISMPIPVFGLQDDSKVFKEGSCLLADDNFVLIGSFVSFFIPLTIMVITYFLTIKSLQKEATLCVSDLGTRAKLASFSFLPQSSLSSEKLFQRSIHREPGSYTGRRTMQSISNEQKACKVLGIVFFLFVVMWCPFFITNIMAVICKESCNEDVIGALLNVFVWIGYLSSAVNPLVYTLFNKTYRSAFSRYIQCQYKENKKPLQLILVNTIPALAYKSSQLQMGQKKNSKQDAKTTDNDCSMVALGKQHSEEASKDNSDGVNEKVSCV

Row | Structure (SMILES) | Ki [1] | Selectivity ratio [2] | Selectivity ratio [3] | further results
1 | COc1cc2c(cc1Br)[C@H](C)[C@@H]1CNC[C@H]21 | 27 nM | 12 | 81 | –
2 | COc1cc2c(cc1Cl)C(C)[C@@H]1CNC[C@H]21 (mixture of isomers) | 530 nM | – | – | –
3 | Clc1ccc2c(c1)C[C@@H]1CNC[C@H]21 | – | 14 | 19 | EC50 [4]: 11 nM
4 | C[C@H]1c2cc(Cl)ccc2[C@H]2CNC[C@H]21 | 911 nM | 56 | 132 | EC50 [4]: 54 nM
5 | Cc1cc2c(cc1Cl)[C@H]1CNC[C@H]1C2C (mixture of isomers) | 465 nM | – | – | –
6 | C[C@H]1c2cc(Cl)c(Cl)cc2[C@H]2CNC[C@H]21 | 155 nM | 8 | 32 | –
7 | Cc1ccc2c(c1)[C@H]1CNC[C@H]1C2C (mixture of isomers) | 3310 nM | – | – | –
8 | Cc1ccc2c(c1)C(C)[C@@H]1CNC[C@H]21 (mixture of isomers) | 1700 nM | – | – | –
9 | C[C@H]1c2c(ccc(Cl)c2Cl)[C@H]2CNC[C@H]21 | 5 nM | 50 | 73 | –
10 | Cc1cc2c(cc1Cl)[C@H](C)[C@@H]1CNC[C@H]21 | 155 nM | 8 | 32 | –
11 | C[C@H]1c2cc(Cl)c(O)cc2[C@H]2CNC[C@H]21 | 27 nM | 27 | 63 | –
12 | C[C@@H]1c2cc(Cl)c(Cl)cc2[C@H]2CNC[C@@H]12 | 1140 nM | 2 | 3 | –
13 | Cc1cc2c(cc1Br)C(C)[C@@H]1CNC[C@H]21 (mixture of isomers) | 463 nM | – | – | –
14 | CC1c2cc(Cl)c(Cl)cc2[C@H]2CNC[C@@H]12 (mixture of isomers) | 103 nM | – | – | –
15 | Cc1cc2c(cc1Cl)C(C)[C@@H]1CNC[C@H]21 (mixture of isomers) | 107 nM | – | – | –
16 | CC1c2ccc(F)cc2[C@H]2CNC[C@@H]12 (mixture of isomers) | 3010 nM | – | – | –
17 | Cc1cccc2c1[C@H]1CNC[C@H]1C2C (mixture of isomers) | 1850 nM | – | – | –
18 | COc1cc2c(cc1Cl)[C@H](C)[C@@H]1CNC[C@H]21 | 14 nM | 73 | 235 | EC50 [4]: 6 nM; clearance [5]: 39 mL/min/kg; half-life [6]: 3.5 h; bioavailability [7]: 80%; Activity (Rattus norvegicus [8]): Dose-dependent effect; Activity (Rattus norvegicus [9]): Active; Activity (Rattus norvegicus [10]): Active; bioavailability [11]: 40%; Kp [12]: 15; clearance [13]: 31 mL/min/kg; half-life [14]: 1.8 h
19 | Cc1cc2c(cc1Br)[C@H]1CNC[C@H]1C2C (mixture of isomers) | 207 nM | – | – | –
20 | Cc1cccc2c1C(C)[C@@H]1CNC[C@H]21 (mixture of isomers) | 3380 nM | – | – | –
21 | CCOc1cc2c(cc1Cl)[C@H](C)[C@@H]1CNC[C@H]21 | 231 nM | 9 | 31 | –
22 | CC1c2cc(F)ccc2[C@H]2CNC[C@@H]12 (mixture of isomers) | > 10000 nM | – | – | –
23 | Cc1cc2c(cc1Cl)[C@H]1CNC[C@H]1[C@H]2C | 134 nM | 11 | 14 | –
